Laboratory results: patent US9920089B2, “Process for producing a solid form of abiraterone acetate” (ZACH SYSTEM, priority 2013, dated 2018)

Tests used:
[1] = Particle size distribution by laser diffraction, dry powder method (Malvern Mastersizer 2000); assay type: physicochemical; conditions: milled dried product after spherical agglomeration
Experimental: PSD was determined by laser diffraction-dry powder method with a Malvern Mastersizer 2000 device.

[2] = cited from earlier work
human cytochrome P45017α = biological target: T1, human cytochrome P45017α (Homo sapiens, UniProt P05093); conditions: qualitative statement; cited from earlier work
T1 sequence (P05093 1-508): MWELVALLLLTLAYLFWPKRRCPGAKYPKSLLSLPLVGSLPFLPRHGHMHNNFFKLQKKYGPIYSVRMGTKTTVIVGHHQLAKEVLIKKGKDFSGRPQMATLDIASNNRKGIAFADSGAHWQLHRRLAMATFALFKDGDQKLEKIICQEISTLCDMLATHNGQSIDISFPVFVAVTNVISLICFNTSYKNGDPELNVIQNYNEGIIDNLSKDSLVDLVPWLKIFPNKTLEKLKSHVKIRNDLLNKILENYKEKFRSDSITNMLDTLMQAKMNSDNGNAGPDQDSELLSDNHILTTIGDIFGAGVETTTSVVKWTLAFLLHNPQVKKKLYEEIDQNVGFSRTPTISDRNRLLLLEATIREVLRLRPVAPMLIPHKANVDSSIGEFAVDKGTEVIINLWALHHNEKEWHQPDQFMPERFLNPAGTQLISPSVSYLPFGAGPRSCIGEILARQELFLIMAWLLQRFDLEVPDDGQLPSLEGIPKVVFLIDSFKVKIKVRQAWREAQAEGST

| SMILES | Measured Particle Size Distribution D(0.5) [1] [μm] | further results |
| --- | --- | --- |
| CC(=O)O[C@H]1CC[C@@]2(C)C(=CC[C@@H]3[C@@H]2CC[C@]2(C)C(c4cccnc4)=CC[C@@H]32)C1 [Example 1, abiraterone acetate] | 4.9 | – |
| CC(=O)O[C@H]1CC[C@@]2(C)C(=CC[C@@H]3[C@@H]2CC[C@]2(C)C(c4cccnc4)=CC[C@@H]32)C1 [Example 4, abiraterone acetate] | 6.5 | – |
| CC(=O)O[C@H]1CC[C@@]2(C)C(=CC[C@@H]3[C@@H]2CC[C@]2(C)C(c4cccnc4)=CC[C@@H]32)C1 [Example 3, abiraterone acetate] | 3.7 | – |
| CC(=O)O[C@H]1CC[C@@]2(C)C(=CC[C@@H]3[C@@H]2CC[C@]2(C)C(c4cccnc4)=CC[C@@H]32)C1 [Abiraterone acetate, (3β)-17-(3-pyridinyl)-androsta-5,16-dien-3-yl acetate] | – | Solubility in 0.1N HCl solution ([2]; 0.1N HCl solution): very slightly soluble; Solubility in aqueous media ([2]; aqueous media, pH range 2.0 to 12.9): practically insoluble; Solubility in organic solvents ([2]; organic solvents): soluble to freely soluble |
| CC(=O)O[C@H]1CC[C@@]2(C)C(=CC[C@@H]3[C@@H]2CC[C@]2(C)C(c4cccnc4)=CC[C@@H]32)C1 [Example 2, abiraterone acetate] | 10.7 | – |
| C[C@]12CC[C@H](O)CC1=CC[C@@H]1[C@@H]2CC[C@]2(C)C(c3cccnc3)=CC[C@@H]12 [Abiraterone, 17-(3-pyridyl)-androsta-5,16-dien-3β-ol] | – | Inhibition of human cytochrome P45017α (human cytochrome P45017α): potent inhibitor |
